Experimental data published in patent publication US20130237556A1, “BERBERINE ALKALOID AS A MEDICAMENT FOR PREVENTION AND TREATMENT OF NEURAL DISEASE” (HONG KONG BAPTIST UNIVERSITY, priority 2012, published 2013).
Where “and” joins values, the source holds several entries; their conditions need not be identical. Equal values may be shown once. Entries after “also recorded” stand apart in the source; their conditions may differ.

Key:
TgCRND8 mice [1] = experiment: Morphometric analysis of Aβ plaque size subsets; assay type: in vivo, mouse
[2] = Regular oral BBR treatment of TgCRND8 mice: body weight and side effects; conditions: BBR 25 or 100 mg/kg/d orally for 4 months
TgCRND8 mice [3] = experiment: Thioflavin S staining of fibrillar parenchymal and cerebrovascular (CAA) Aβ; assay type: in vivo, mouse; conditions: for reduction in ThioS-positive fibrillar Aβ: relative to untreated control TgCRND8
N2a-SwedAPP cells [4] = experiment: MTT toxicity assay; assay type: cell-based, mouse; conditions: up to 25 μM BBR, 24 h
Protocol: N2a-SweAPP cells are mouse neuroblastoma N2a cells stably transfected with human Swedish mutant APP695, and were gifts from Dr. Gopal Thinakaran (University of Chicago, Chicago Ill.). Cells were maintained in Dulbecco's modified Eagle's medium (DMEM) (Invitrogen, Carlsbad, Calif.) supplemented with 10% fetal bovine serum, penicillin and streptomycin and 200 μg/mL G418 (Invitrogen). Cells were cultured either in multiwell dishes or on 60 mm tissue culture plates in DMEM 10% with FBS Cell cultures were incubated at 37° C. in a humid 5% CO2/ 95% air environment. After cells were grown close to confluence, they were treated with/without different concentrations of BBR in DMEM (1% FBS) for 24 h. […] For the concentration-dependent treatment, cells were treated with serial dilutions of BBR ranging from 0-20 μM for 2 or 12 h prior to lysis with ice-cold RIPA buffer (20 mM Tris, pH 7.4, 150 mM NaCl, 1% triton-X, 0.5% sodium deoxycholate, EDTA) containing protease inhibitor cocktails (EMD chemicals, Philadelphia, Pa.) to find the optimal range of BBR. For the time-dependent application, cells were treated with a 20 μM concentration of BBR and incubated at time points ranging from 0-180 min prior to lysis. For immunofluorescent staining, N2a-SwedAPP cells were seeded on glass cover slips at a density of 0.5×10^5 viable cells per well in a 24-well plate. […]

N2a-SwedAPP cells [5] = experiment: Immunofluorescence of p-APP in endosomal compartments (Rab5); assay type: cell-based, mouse; conditions: 20 μM BBR, 3 h
Protocol: N2a-SweAPP cells are mouse neuroblastoma N2a cells stably transfected with human Swedish mutant APP695, and were gifts from Dr. Gopal Thinakaran (University of Chicago, Chicago Ill.). Cells were maintained in Dulbecco's modified Eagle's medium (DMEM) (Invitrogen, Carlsbad, Calif.) supplemented with 10% fetal bovine serum, penicillin and streptomycin and 200 μg/mL G418 (Invitrogen). Cells were cultured either in multiwell dishes or on 60 mm tissue culture plates in DMEM 10% with FBS Cell cultures were incubated at 37° C. in a humid 5% CO2/ 95% air environment. After cells were grown close to confluence, they were treated with/without different concentrations of BBR in DMEM (1% FBS) for 24 h. […]
For higher resolution microscopy, images were acquired using an Olympus IX70 Delta Vision microscopy system (Applied Precision, Issaquah, Wash.) with a 100×1.5 numerical aperture oil immersion lens. […] Subsequently serial Z-stacks of fluorescence images at 0.2-μm interval were acquired and deconvolved via a controlled iterative algorithm to generate high-resolution images of cells using […] (Applied Precision).

Aβ1-42 fibril formation [6] = molecular target: T1, Aβ1-42 fibril formation (Homo sapiens, UniProt P05067); experiment: Inhibition of Aβ1-42 fibril formation in vitro; assay type: biochemical
T1 sequence (P05067 672-713 limits assumed): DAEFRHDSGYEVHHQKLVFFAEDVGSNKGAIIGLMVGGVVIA

Aβ1-42 fibril formation [7] = molecular target: T1, Aβ1-42 fibril formation; conditions: BBR 20 μM, in vitro; cited from earlier work
TgCRND8 mice [8] = experiment: Aβ plaque burden by 4G8 immunostaining in cortex and hippocampus; assay type: in vivo, mouse
TgCRND8 mice [9] = experiment: Morris water maze (visible platform, hidden platform, probe trials); assay type: in vivo, mouse
TgCRND8 mice [10] = experiment: Western blot of brain homogenates (APP processing, tau phosphorylation, Akt/GSK3); assay type: in vivo, mouse
[11] = BBR 25 and 100 mg/Kg/d vs vehicle
[12] = BBR- vs vehicle-treated TgCRND8
[13] = BBR-treated vs vehicle-treated TgCRND8, dose not stated

In the case of COc1ccc2cc3[n+](cc2c1OC)CCc1cc2c(cc1-3)OCO2 [BBR, 5,6-dihydro-9,10-dimethoxybenzo[g]-1,3-benzodioxolo[5,6-a]quinolizinium], the “percentage reduction in large (>50) amyloid plaque subset” value (TgCRND8 mice [1]; 25 mg/Kg) is reported as 60%, the “percentage reduction in medium (25-50 μm) amyloid plaque subset” value (TgCRND8 mice [1]; 25 mg/Kg) is reported as 41% and the “percentage reduction in small sized (<25 μm) amyloid plaque subset” value (TgCRND8 mice [1]; 25 mg/Kg) is reported as 35%. For the same compound, the “percentage reduction in total amyloid plaque number” value (TgCRND8 mice [1]; 25 mg/Kg) was 37%, the “reduction of amyloid plaque subsets” value (TgCRND8 mice [1]; 100 mg/Kg/d) was 21-28% and the animal body weight [2] was “does not significantly influence animal body weight”. The “ThioS-labeled blood vessels (CAA), cortical area covered” value (TgCRND8 mice [3]; 25 mg/Kg/d (vehicle 1.44±0.17%)) was 0.70% ±0.11, the “reduction in ThioS-positive fibrillar Aβ” value (TgCRND8 mice [3]; 25 mg/kg/d) was 40% and the “ThioS-labeled blood vessels (CAA), cortical area covered” value (TgCRND8 mice [3]; 100 mg/Kg/d (vehicle 1.44±0.17%)) was 0.89%±0.02. For the same compound, the “reduction in ThioS-positive fibrillar Aβ” value (TgCRND8 mice [3]; 100 mg/kg/d) was 51%, the “cell viability (MTT)” value (N2a-SwedAPP cells [4]) was “did not affect cell viability” and the “pAPP staining in the endosomal compartments” value (N2a-SwedAPP cells [5]) was “markedly reduced”. The IC50 (Aβ1-42 fibril formation [6]; in vitro) was 23.5 µM, the “effective in vitro concentration (approximately 20 μM) relative to brain levels” value (Aβ1-42 fibril formation [6]; printed as 'times less than those found in the brain') was 23 times and the “inhibition of Aβ1-42 fibril formation” value (Aβ1-42 fibril formation [7]) was 36.3%. The “decrease in plaque burden compared with control animals (4G8)” value (TgCRND8 mice [8]; 25 mg/Kg/d) was 60% and 61%, the “reduction in amyloid burden observed in this study” value (TgCRND8 mice [8]; range over BBR doses (discussion)) was 43-63% and the “probe trial: time spent in the target quadrant” value (TgCRND8 mice [9]; 25 and 100 mg/kg/d vs vehicle-treated TgCRND8) was “highest duration; also recorded: prevent decrease in the time spent in the target quadrant”. The “probe trial: spatial bias” value (TgCRND8 mice [9]; BBR 25 mg/Kg, all probe trials) was “significantly increases their spatial bias”, the “hidden platform path distance (swim path)” value (TgCRND8 mice [9]; low and high doses of BBR (25 and 100 mg/kg/d) vs vehicle-treated TgCRND8) was “significantly reduced swim path; also recorded: reduced the path distance; also recorded: show a reduction in swimming distance” and the “CTF-α and β levels in brain homogenates” value (TgCRND8 mice [10]; 25 mg/Kg/day) was “significantly reduces”. The “ADAM-10 level in brain homogenates” value (TgCRND8 mice [10]; [11]) was “no significant difference; also recorded: no effect”, the “BACE-1 level in brain homogenates” value (TgCRND8 mice [10]; [11]) was “no effect; also recorded: no significant difference” and the “full length APP level in brain homogenates” value (TgCRND8 mice [10]; [11]) was “no effect; also recorded: no significant difference”. For the same compound, the “total GSK3α/β and total Akt” value (TgCRND8 mice [10]; BBR treatment) was “unaltered”, the “IDE level in brain homogenates” value (TgCRND8 mice [10]; BBR vs vehicle) was “no significant difference; also recorded: does not affect” and the “neprilysin level in brain homogenates” value (TgCRND8 mice [10]; BBR vs vehicle) was “no significant difference; also recorded: does not affect”. The “p-Cdk5 (Y15) level” value (TgCRND8 mice [10]; [12]) was “no significant differences”, the “p-JNK (Thr183/Tyr185) level” value (TgCRND8 mice [10]; [12]) was “no significant differences” and the “phosphorylated Akt (p-Akt) level normalized to total Akt” value (TgCRND8 mice [10]; [12]) was “significantly high”. For the same compound, the “tau-1 immunoreactivity (dephosphorylated tau)” value (TgCRND8 mice [10]; BBR-treated TgCRND8) was “significant increase”, the “enhancement in phosphorylated GSK3α and β at Ser 21 and 9” value (TgCRND8 mice [10]; BBR-treated vs vehicle-treated TgCRND8) was 50% and the “decrease of phosphorylated tau at AT8 phosphoepitope” value (TgCRND8 mice [10]; [13]) was 30%. For the same compound, the “decrease of phosphorylated tau at AT180 phosphoepitope” value (TgCRND8 mice [10]; [13]) was 42%, the “decrease of phosphorylated tau at PHF-1 phosphoepitope” value (TgCRND8 mice [10]; [13]) was 26% and the total tau levels (TgCRND8 mice [10]; between the groups) was “No significant difference”. For the same compound, the “decrease in the p-APP and p-CTFs” value (TgCRND8 mice [10]; high dose group vs vehicle) was 27-28% and the “decrease in the p-APP and p-CTFs” value (TgCRND8 mice [10]; low dose group vs vehicle) was 46-50%.
